Literature values as cited in US20260364145A1, “MODIFIED CAVEOLIN-1 PEPTIDE FORMULATIONS AND METHODS OF MANUFACTURING AND USE THEREOF” (REIN THERAPEUTICS, INC., priority 2023, published 2026).

Experiments:
Conditions in all cases: cited from earlier work
[1] = tested on: Wnt-signaling, β-catenin-mediated transcription, activation of SRC, EGFR, MEK1 and ERK-2
[2] = tested on: Cav-1 interaction with SRC kinases
[3] = tested on: fibrosis

DGIWKASFTTFTVTKYWFYR [CSP 20-mer]
effect on signaling [1]: inhibition of Wnt-signaling, β-catenin-mediated transcription, activation of SRC, EGFR, MEK1 and ERK-2 | effect on Cav-1 interaction with SRC kinases [2]: interferes with Cav-1 interaction with SRC kinases | effect on fibrosis ([3]; animal models): prevent, limit, or reverse fibrosis in animal models | effect on lung aSMA, epithelial apoptosis, collagen and profibrogenic signaling ([3]; in vivo): reduced lung aSMA and lung epithelial apoptosis, reduced collagen deposition, and down-regulation of expression of profibrogenic signaling molecules
